Earlier results, collected in US20140200276A1 (iCeutica, Inc., priority 2009, published 2014).

Compound: COc1ccc2cc([C@H](C)C(=O)O)ccc2c1 [naproxen]
- administered dose excreted in the feces (in vivo): ≤ 3%
- excreted in the urine as 6-O-desmethyl naproxen (in vivo): < 1%
- naproxen from any dose excreted in the urine (total): Approximately 95%
- excreted in the urine as naproxen (unchanged naproxen): < 1%
